System: 958667-338-R-J2-PDC tumor spheroids viability
Assay: Anticancer human tumor 958667-338-R-J2-PDC patient-derived colon adenocarcinoma cell line growth inhibition [PI3K]
Conditions: spheroids with HUVEC and MSC; for IC50: curve of first compound; for viability, T/C: stronger effect = lower value
Procedure, shortened: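 Combination activity was assessed by viability in multicellular tumor spheroids carrying HUVEC and MSC components. Agents were tested with PI3K inhibitors from a Cmax-based top dose (or 10 microM) downward in half-log increments.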

[1] = second compound 0.0316 µM, first compound 0.0316 µM
[2] = second compound 0.0316 µM, first compound 0.1 µM
[3] = second compound 0.1 µM, first compound 0.0316 µM
[4] = second compound 0.1 µM, first compound 0.1 µM
[5] = second compound 0.316 µM, first compound 0.0316 µM
[6] = second compound 0.316 µM, first compound 0.1 µM
[7] = second compound 1 µM, first compound 0.0316 µM
[8] = second compound 1 µM, first compound 0.1 µM
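Also: spheroids exposed to compounds for seven days before readout.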

Cn1ncnc1[C@H]1c2n[nH]c(=O)c3cc(F)cc(c23)N[C@@H]1c1ccc(F)cc1 + COc1c(OCCCN2CCOCC2)ccc2c3n(c(=NC(=O)c4cnc(N)nc4)nc12)CCN3
IC50 (second compound 0.00316 µM): > 0.1 µM
IC50 (second compound 0.01 µM): > 0.1 µM
IC50 (second compound 0.0316 µM): > 0.1 µM
IC50 (second compound 0.1 µM): > 0.1 µM
IC50 (second compound 0.316 µM): < 0.000316 µM
IC50 (second compound 1 µM): < 0.000316 µM
viability, T/C (second compound 0.00316 µM, first compound 0.000316 µM): 96.3%
viability, T/C (second compound 0.00316 µM, first compound 0.001 µM): 104%
viability, T/C (second compound 0.00316 µM, first compound 0.00316 µM): 93.6%
viability, T/C (second compound 0.00316 µM, first compound 0.01 µM): 102%
viability, T/C (second compound 0.00316 µM, first compound 0.0316 µM): 87.8%
viability, T/C (second compound 0.00316 µM, first compound 0.1 µM): 75.8%
viability, T/C (second compound 0.01 µM, first compound 0.000316 µM): 76.3%
viability, T/C (second compound 0.01 µM, first compound 0.001 µM): 72.5%
viability, T/C (second compound 0.01 µM, first compound 0.00316 µM): 94.2%
viability, T/C (second compound 0.01 µM, first compound 0.01 µM): 90.7%
viability, T/C (second compound 0.01 µM, first compound 0.0316 µM): 80.5%
viability, T/C (second compound 0.01 µM, first compound 0.1 µM): 87.3%
viability, T/C (second compound 0.0316 µM, first compound 0.000316 µM): 69.4%
viability, T/C (second compound 0.0316 µM, first compound 0.001 µM): 74.4%
viability, T/C (second compound 0.0316 µM, first compound 0.00316 µM): 98.4%
viability, T/C (second compound 0.0316 µM, first compound 0.01 µM): 79.2%
viability, T/C [1]: 79.8%
viability, T/C [2]: 61.9%
viability, T/C (second compound 0.1 µM, first compound 0.000316 µM): 62%
viability, T/C (second compound 0.1 µM, first compound 0.001 µM): 61.7%
viability, T/C (second compound 0.1 µM, first compound 0.00316 µM): 59.6%
viability, T/C (second compound 0.1 µM, first compound 0.01 µM): 66.8%
viability, T/C [3]: 57.3%
viability, T/C [4]: 56%
viability, T/C (second compound 0.316 µM, first compound 0.000316 µM): 37%
viability, T/C (second compound 0.316 µM, first compound 0.001 µM): 38%
viability, T/C (second compound 0.316 µM, first compound 0.00316 µM): 43.8%
viability, T/C (second compound 0.316 µM, first compound 0.01 µM): 46.1%
viability, T/C [5]: 34.9%
viability, T/C [6]: 34.9%
viability, T/C (second compound 1 µM, first compound 0.000316 µM): 19.7%
viability, T/C (second compound 1 µM, first compound 0.001 µM): 15.6%
viability, T/C (second compound 1 µM, first compound 0.00316 µM): 21.7%
viability, T/C (second compound 1 µM, first compound 0.01 µM): 21.1%
viability, T/C [7]: 22.5%
viability, T/C [8]: 14.9%

CC1(C)CCC(CN2CCN(c3ccc(C(=O)NS(=O)(=O)c4ccc(NCC5CCOCC5)c([N+](=O)[O-])c4)c(Oc4cnc5[nH]ccc5c4)c3)CC2)=C(c2ccc(Cl)cc2)C1 + Cc1nc(NC(=O)N2CCCC2C(N)=O)sc1-c1ccnc(C(C)(C)C(F)(F)F)c1
IC50 (second compound 0.0316 µM): 7.01 µM
IC50 (second compound 0.1 µM): 6.73 µM
IC50 (second compound 0.316 µM): 6.72 µM
IC50 (second compound 1 µM): 6.91 µM
IC50 (second compound 3.16 µM): 5.32 µM
IC50 (second compound 10 µM): 4.21 µM
viability, T/C [1]: 88.8%
viability, T/C [2]: 95%
viability, T/C (second compound 0.0316 µM, first compound 0.316 µM): 83.5%
viability, T/C (second compound 0.0316 µM, first compound 1 µM): 123%
viability, T/C (second compound 0.0316 µM, first compound 3.16 µM): 97.1%
viability, T/C (second compound 0.0316 µM, first compound 10 µM): 29.1%
viability, T/C [3]: 90.4%
viability, T/C [4]: 93.2%
viability, T/C (second compound 0.1 µM, first compound 0.316 µM): 99.4%
viability, T/C (second compound 0.1 µM, first compound 1 µM): 99.8%
viability, T/C (second compound 0.1 µM, first compound 3.16 µM): 107%
viability, T/C (second compound 0.1 µM, first compound 10 µM): 24.8%
viability, T/C [5]: 93.3%
viability, T/C [6]: 85.8%
viability, T/C (second compound 0.316 µM, first compound 0.316 µM): 104%
viability, T/C (second compound 0.316 µM, first compound 1 µM): 99%
viability, T/C (second compound 0.316 µM, first compound 3.16 µM): 98.5%
viability, T/C (second compound 0.316 µM, first compound 10 µM): 25.7%
viability, T/C [7]: 88.9%
viability, T/C [8]: 72.6%
viability, T/C (second compound 1 µM, first compound 0.316 µM): 93.3%
viability, T/C (second compound 1 µM, first compound 1 µM): 87.6%
viability, T/C (second compound 1 µM, first compound 3.16 µM): 91.1%
viability, T/C (second compound 1 µM, first compound 10 µM): 32.5%
viability, T/C (second compound 3.16 µM, first compound 0.0316 µM): 89.3%
viability, T/C (second compound 3.16 µM, first compound 0.1 µM): 76.8%
viability, T/C (second compound 3.16 µM, first compound 0.316 µM): 67%
viability, T/C (second compound 3.16 µM, first compound 1 µM): 76.5%
viability, T/C (second compound 3.16 µM, first compound 3.16 µM): 66.6%
viability, T/C (second compound 3.16 µM, first compound 10 µM): 31.4%
viability, T/C (second compound 10 µM, first compound 0.0316 µM): 65.7%
viability, T/C (second compound 10 µM, first compound 0.1 µM): 64.6%
viability, T/C (second compound 10 µM, first compound 0.316 µM): 55.8%
viability, T/C (second compound 10 µM, first compound 1 µM): 61.5%
viability, T/C (second compound 10 µM, first compound 3.16 µM): 65.7%
viability, T/C (second compound 10 µM, first compound 10 µM): 12%

Reference: PubChem BioAssay AID1963963 (Molecular Pharmacology Branch, DTP, NCI, 2024)
